Source: PMC7503713, “GANT61 Reduces Hedgehog Molecule (GLI1) Expression and Promotes Apoptosis in Metastatic Oral Squamous Cell Carcinoma Cells” (International Journal of Molecular Sciences, 2020)

Tests used:
NOF = assay: alamarBlue cytotoxicity assay, normal oral fibroblasts NOF; format: cell-based; conditions: Homo sapiens, Fibroblast, 72 h of incubation
Procedure: For comparative analysis, primary cultures of normal oral fibroblasts (NOF) were isolated from fragments of healthy patient gingiva, using the same technique previously described for CAFs above, and then maintained in culture for up to 15 passages.
(§1) To assess the cytotoxicity of the GLI inhibitor GANT61 (Sigma-Aldrich, St. Louis, MO, USA) in tumor and non-tumor cell lines, an alamarBlue assay (Sigma-Aldrich Chemical Co, St. Louis, MO, USA) was performed after 72 h of exposure to the inhibitor, as described by Ahmed et al., 1994 [46]. Cells were distributed on 96-well plates at a density of 7 × 10^4 cells/mL for adhered cells, and 3 × 10^5 cells/mL for cells in suspension. All tested compounds were dissolved in DMSO, added to wells containing 100 µL of cells in complete medium, and then incubated for 72 h. […] Absorbance was measured at 570 nm (reduced) and 595 nm (oxidized) wavelengths, using a Spectramax 190 plate reader (Molecular Devices; Sunnyvale, CA, USA).
(§2) Statistical analyses were performed, using GraphPad Prism v. […] Data were analyzed according to distribution along the normal Gaussian curve. […] Differences between groups resulting from in vitro assays were evaluated by ANOVA (analysis of variance) testing, followed by the Student–Newman–Keuls test. […]

Gli1 protein = assay: Western blot of HH pathway proteins in HSC3 cells, Gli1; format: cell-based, human; conditions: 24 h
Procedure: (§3) After culturing, HSC3 cells were washed with PBS and denatured by using cell lysis buffer containing 50 mM Tris-HCl (pH 7.4), 1% Triton X-100, 150 mM NaCl, 0.5 mM EGTA, 0.5 EDTA mM, and an anti-protease cocktail (Complete Pro-inhibitor Cocktail Tablets, Roche, Basel, Switzerland). Protein extracts (50 μg) were separated by SDS-PAGE and transferred to Hybond-C Extra (GE Healthcare, Chicago, IL, USA) nitrocellulose membranes. The following antibodies were used in the Western blot assay: mouse […] against Sonic Hedgehog (1:500, Clone 5 H4, Cat. number NBP2-22126, Novus Biologicals, Centennial, CO, USA), rabbit polyclonal against Gli1 (1:500, Novus Biologicals, Cat. number NB600-600), rabbit polyclonal against Patched 1 (1:500, Novus Biologicals, Cat.number NB200-118), and rabbit polyclonal against Smoothened (1:1000, Cat. number AB72130, Abcam, Cambridge, MA, USA). The secondary antibodies were anti-mouse IgG (1:10,000, Santa Cruz Biotechnology, Santa Cruz, CA, USA) and anti-rabbit IgG (1:10,000, GE Healthcare, Chicago, IL, USA). Signal detection was performed by using an ECL + Chemiluminescence Detection System (PerkinElmer, Villebon sur-Yvette, France). The antibody actin (1:10000, Cat. Number15 G5 A11/E2, Invitrogen, Carlsbad, CA, USA) was selected as an endogenous control for analysis of HH pathway component expression in HSC3 cells. […]

PTCH1 protein = assay: Western blot of HH pathway proteins in HSC3 cells, PTCH1; format: cell-based, human; conditions: HSC3, 18 and 36 µM, 24 h
Procedure: as §3

HL60 = assay: alamarBlue cytotoxicity assay, HL60; format: cell-based, human; conditions: 72 h of incubation
Procedure: as §1, with “h. Eight concentrations of GANT61 (0.19 to 50 µg/mL), Doxorubicin (Laboratory IMA S.A.I.C., Buenos Aires, Argentina), and 5-Fluorouracil (5-FU, Sigma-Aldrich, St. Louis, MO, USA), both used as positive controls at concentrations ranging from 0.03 to 5 µg/mL, were added to respective wells.” for “h.”
as §2

APC02 = assay: alamarBlue cytotoxicity assay, APC02; format: cell-based, human; conditions: 72 h of incubation
Procedure: as §1, with “h. Eight concentrations of GANT61 (0.19 to 50 µg/mL), Doxorubicin (Laboratory IMA S.A.I.C., Buenos Aires, Argentina), and 5-Fluorouracil (5-FU, Sigma-Aldrich, St. Louis, MO, USA), both used as positive controls at concentrations ranging from 0.03 to 5 µg/mL, were added to respective wells.” for “h.”
as §2

AGP01 = assay: alamarBlue cytotoxicity assay, AGP01; format: cell-based, human; conditions: 72 h of incubation
Procedure: as §1, with “h. Eight concentrations of GANT61 (0.19 to 50 µg/mL), Doxorubicin (Laboratory IMA S.A.I.C., Buenos Aires, Argentina), and 5-Fluorouracil (5-FU, Sigma-Aldrich, St. Louis, MO, USA), both used as positive controls at concentrations ranging from 0.03 to 5 µg/mL, were added to respective wells.” for “h.”
as §2

APC03 = assay: alamarBlue cytotoxicity assay, APC03; format: cell-based, human; conditions: 72 h of incubation
Procedure: as §1, with “h. Eight concentrations of GANT61 (0.19 to 50 µg/mL), Doxorubicin (Laboratory IMA S.A.I.C., Buenos Aires, Argentina), and 5-Fluorouracil (5-FU, Sigma-Aldrich, St. Louis, MO, USA), both used as positive controls at concentrations ranging from 0.03 to 5 µg/mL, were added to respective wells.” for “h.”
as §2

HT-29 = assay: alamarBlue cytotoxicity assay, HT-29; format: cell-based, human; conditions: HT-29, alamarBlue, 72 h of incubation
Procedure: as §1, with “h. Eight concentrations of GANT61 (0.19 to 50 µg/mL), Doxorubicin (Laboratory IMA S.A.I.C., Buenos Aires, Argentina), and 5-Fluorouracil (5-FU, Sigma-Aldrich, St. Louis, MO, USA), both used as positive controls at concentrations ranging from 0.03 to 5 µg/mL, were added to respective wells.” for “h.”
as §2

SCC15 = assay: alamarBlue cytotoxicity assay, SCC15; format: cell-based, human; conditions: 72 h of incubation
Procedure: as §1, with “h. Eight concentrations of GANT61 (0.19 to 50 µg/mL), Doxorubicin (Laboratory IMA S.A.I.C., Buenos Aires, Argentina), and 5-Fluorouracil (5-FU, Sigma-Aldrich, St. Louis, MO, USA), both used as positive controls at concentrations ranging from 0.03 to 5 µg/mL, were added to respective wells.” for “h.”
as §2

SHH protein = assay: Western blot of HH pathway proteins in HSC3 cells, SHH; format: cell-based, human; conditions: HSC3, 18 and 36 µM, 24 h
Procedure: as §3

SMILES	IC50 (NOF) [µM]	Gli1 protein levels (Gli1 protein; HSC3, 17 µM)	PTCH1 protein expression (PTCH1 protein)	IC50 (HL60) [µM]	IC50 (APC02) [µM]	IC50 (AGP01) [µM]	IC50 (APC03) [µM]	IC50 (HT-29) [µM]	Gli1 protein expression (Gli1 protein; HSC3, 18 and 36 µM)	IC50 (SCC15) [µM]	SHH protein expression (SHH protein)
O=c1[nH]cc(F)c(=O)[nH]1 [5-FU, 5-fluorouracil]	39.6	reduce Gli1 protein levels	–	–	–	–	–	–	–	–	–
CN(C)c1ccccc1CN1CCCN(Cc2ccccc2N(C)C)C1c1ccncc1 [GANT61]	–	–	reduced levels	> 116	> 116	> 116	> 116	> 116	reduced levels	72.7	reduced levels
